In this experiment the target is Synaptic vesicular amine transporter (Rattus norvegicus, UniProt Q01827). As to the kind of experiment: Displacement of [3H]dihydrotetrabenazine from vesicular monoamine transporter-2 in rat brain synaptosome. The class given is tissue-based.
Sequence of Synaptic vesicular amine transporter (Q01827 whole entry): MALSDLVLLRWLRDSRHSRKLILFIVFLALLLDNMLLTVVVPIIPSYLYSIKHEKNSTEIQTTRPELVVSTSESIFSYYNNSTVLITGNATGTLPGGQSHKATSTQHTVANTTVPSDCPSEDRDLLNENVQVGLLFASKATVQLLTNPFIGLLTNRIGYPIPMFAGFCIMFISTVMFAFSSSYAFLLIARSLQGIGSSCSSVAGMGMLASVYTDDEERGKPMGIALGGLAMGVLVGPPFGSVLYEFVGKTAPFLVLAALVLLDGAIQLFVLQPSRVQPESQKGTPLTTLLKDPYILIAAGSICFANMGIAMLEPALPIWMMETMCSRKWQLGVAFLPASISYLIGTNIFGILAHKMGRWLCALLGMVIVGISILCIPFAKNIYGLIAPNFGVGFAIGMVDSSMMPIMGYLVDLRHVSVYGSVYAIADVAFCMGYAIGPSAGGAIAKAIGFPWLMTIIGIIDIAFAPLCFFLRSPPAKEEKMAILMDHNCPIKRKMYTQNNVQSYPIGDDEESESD
The compound `c1ccc(C[C@H]2CCC[C@@H](c3ccccc3)N2)cc1` showed a Ki of 24.1 µM.
The result for `CN1[C@H](CCCc2ccccc2)CCC[C@@H]1CCCc1ccccc1` reads 1 µM.
The result for `c1ccc(CCC[C@H]2CCC[C@@H](Cc3ccccc3)N2)cc1` reads 1.13 µM.
Then `CN1[C@@H](Cc2ccccc2)CCC[C@H]1Cc1ccccc1`, with 10.5 µM; and `CN1[C@@H](CCc2ccccc2)CCC[C@H]1Cc1ccccc1`, with 2.77 µM; and `CN1[C@@H](CCCc2ccccc2)CCC[C@H]1c1ccccc1`, with 62.5 µM.
As for `CN1[C@@H](Cc2ccccc2)CCC[C@H]1c1ccccc1`, the affinity, expressed as Ki, was 13.6 µM.
The result for `c1ccc(CCC[C@H]2CCC[C@@H](c3ccccc3)N2)cc1` reads 28.6 µM; that for `c1ccc(CC[C@H]2CCC[C@@H](Cc3ccccc3)N2)cc1`, 12.2 µM.
For `CN1[C@@H](c2ccccc2)CCC[C@H]1c1ccccc1`, the Ki is over 100 µM.
The result for `c1ccc(CCC[C@H]2CCC[C@@H](CCc3ccccc3)N2)cc1` reads 4.6 µM.
Then `CN1[C@@H](CCCc2ccccc2)CCC[C@H]1CCc1ccccc1`, with 0.88 µM.
The result for `c1ccc(CC[C@H]2CCC[C@@H](c3ccccc3)N2)cc1` reads 28.4 µM; that for `CN1[C@@H](CCCc2ccccc2)CCC[C@H]1Cc1ccccc1`, 1.62 µM.
Turning to `c1ccc(C[C@H]2CCC[C@@H](Cc3ccccc3)N2)cc1`, the affinity, expressed as Ki, was 7.68 µM.
Then `c1ccc(CCC[C@@H]2CCC[C@H](CCCc3ccccc3)N2)cc1`, with 4.56 µM.

These data come from ChEMBL document CHEMBL1152171 (Bioorg Med Chem Lett, 2008).
